For 36 molecules, melting point results are on record in patent publication US6903086B2, “Alkoxycarbonylamino benzoic acid or alkoxycarbonylamino tetrazolyl phenyl derivatives as IP antagonists” (SYNTEX (U.S.A.) LLC, priority 2001, dated 2005).

Structures are written as SMILES.

For the molecule `O=C(Nc1cc2ccccc2cc1C(=O)O)OCc1cc2cc(-c3ccccc3)ccc2o1` [compound 18, 3-(5-phenyl-benzofuran-2-ylmethoxycarbonylamino)-naphthalene-2-carboxylic acid], the melting point (commonly the temperature, or range, at which the solid turns liquid) fell in the range of 225.6 to 225.8 °C.

Molecule `O=C(Nc1ccc(-c2ccc(F)cc2)cc1C(=O)O)OCc1cc2cc(-c3ccsc3)ccc2o1` [compound 32, 4′-fluoro-4-(5-thiophen-3-yl-benzofuran-2-ylmethoxycarbonylamino)-biphenyl-3-carboxylic acid] gave a melting point of 213.2 to 215.1 °C. With `O=C(Nc1ccc(Br)cc1C(=O)O)OCc1cc2cc(-c3ccccc3)ccc2o1` [compound 19, 5-bromo-2-(5-phenyl-benzofuran-2-ylmethoxycarbonylamino)-benzoic acid], the melting point lay within 221.2 to 222 °C. The result for `O=C(Nc1ccc(-c2ccccc2)cc1-c1nnn[nH]1)OCc1cc2cc(-c3cc(Cl)cc(Cl)c3)ccc2o1` [compound 502, [3-(1H-tetrazol-5-yl)-biphenyl-4-yl]-carbamic acid 5-(3,5-dichloro-phenyl)-benzofuran-2-ylmethyl ester] reads 127.5 to 134 °C. The result for `O=C(Nc1ccc(-c2ccccc2)cc1-c1nnn[nH]1)OCc1cc2cc(-c3ccc(F)cc3)ccc2o1` [compound 509, [3-(1H-tetrazol-5-yl)-biphenyl-4-yl]-carbamic acid 5-(4-fluoro-phenyl)-benzofuran-2-ylmethyl ester] reads 192 to 230 °C; that for `O=C(Nc1ccc(-c2ccc(F)cc2)cc1C(=O)O)OCc1cc2cc(-c3ccc(F)cc3)ccc2o1` [compound 14, 4′-fluoro-4-[5-(4-fluoro-phenyl)-benzofuran-2-ylmethoxycarbonylamino]-biphenyl-3-carboxylic acid], 235.1 to 235.7 °C. Regarding `O=C(Nc1cccc(Cl)c1C(=O)O)OCc1cc2cc(-c3ccc(F)cc3)ccc2o1` [compound 25, 2-chloro-6-[5-(4-fluoro-phenyl)-benzofuran-2-ylmethoxycarbonylamino]-benzoic acid], the melting point was in the range of 216.7 to 217.3 °C.

For `O=C(Nc1ccc(-c2ccsc2)cc1C(=O)O)OCc1cc2cc(-c3ccccc3)ccc2o1` [compound 13, 2-(5-phenyl-benzofuran-2-ylmethoxycarbonylamino)-5-thiophen-3-yl-benzoic acid], the melting point lay in the range of 229.5 to 230 °C. The result for `O=C(Nc1ccc(-c2ccc(F)cc2)cc1-c1nnn[nH]1)OCc1cc2cc(-c3ccc(F)cc3)ccc2o1` [compound 505, [4′-fluoro-3-(1H-tetrazol-5-yl)-biphenyl-4-yl]-carbamic acid 5-(4-fluoro-phenyl)-benzofuran-2-ylmethyl ester] reads 209 to 211 °C; that for `N#Cc1ccc(NC(=O)OCc2cc3cc(-c4ccccc4)ccc3o2)c(C(=O)O)c1` [compound 21, 5-cyano-2-(5-phenyl-benzofuran-2-ylmethoxycarbonylamino)-benzoic acid], 213.9 to 214.5 °C; that for `Cc1cccc(NC(=O)OCc2cc3cc(-c4ccc(F)cc4)ccc3o2)c1C(=O)O` [compound 27, 2-[5-(4-fluoro-phenyl)-benzofuran-2-ylmethoxycarbonylamino]-6-methyl-benzoic acid], 176.1 to 178.8 °C. With `O=C(Nc1cccc([N+](=O)[O-])c1C(=O)O)OCc1cc2cc(-c3ccc(F)cc3)ccc2o1` [compound 30, 2-[5-(4-fluoro-phenyl)-benzofuran-2-ylmethoxycarbonylamino]-6-nitro-benzoic acid], the melting point fell in the range of 191.5 to 191.9 °C.

Consider `O=C(Nc1ccc(F)cc1-c1nnn[nH]1)OCc1cc2cc(-c3ccc(F)cc3)ccc2o1` [compound 506, [4-fluoro-2-(1H-tetrazol-5-yl)-phenyl]-carbamic acid 5-(4-fluoro-phenyl)-benzofuran-2-ylmethyl ester], for which the melting point is 121 to 125.2 °C. For the molecule `O=C(Nc1ccc2ccccc2c1C(=O)O)OCc1cc2cc(-c3ccccc3)ccc2o1` [compound 201, 2-(5-phenyl-benzofuran-2-ylmethoxycarbonylamino)-naphthalene-1-carboxylic acid], the melting point lay within 174.5 to 177.2 °C. The result for `O=C(Nc1ccc(-c2ccccc2)cc1C(=O)O)OCc1cc2cc(-c3ccccc3)ccc2o1` [compound 10, 4-(5-phenyl-benzofuran-2-ylmethoxycarbonylamino)-biphenyl-3-carboxylic acid] reads 225.9 to 226.2 °C; that for `O=C(Nc1cccc(Cl)c1C(=O)O)OCc1cc2cc(-c3ccccn3)ccc2o1` [compound 38, 2-chloro-6-(5-pyridin-2-yl-benzofuran-2-ylmethoxycarbonylamino)-benzoic acid], 134.8 to 144.1 °C. For `N#Cc1cccc(NC(=O)OCc2cc3cc(-c4ccc(F)cc4)ccc3o2)c1C(=O)O` [compound 33, 2-cyano-6-[5-(4-fluoro-phenyl)-benzofuran-2-ylmethoxycarbonylamino]-benzoic acid] the value was 150 °C (dec.). `CC(C)Oc1ccc(NC(=O)OCc2cc3cc(-c4ccc(F)cc4)ccc3o2)c(C(=O)O)c1` [compound 301, 2-[5-(4-fluoro-phenyl)-benzofuran-2-ylmethoxycarbonylamino]-5-isopropoxy-benzoic acid]: the melting point was in the range of 195 to 196.5 °C. The result for `O=C(Nc1cc(C(=O)O)cc(-c2ccccc2)c1)OCc1cc2cc(-c3ccccc3)ccc2o1` [compound 401, 5-(5-phenyl-benzofuran-2-ylmethoxycarbonylamino)-biphenyl-3-carboxylic acid] reads 235.7 to 238.9 °C; that for `O=C(Nc1ccc2ccccc2c1C(=O)O)OCc1cc2cc(-c3ccc(F)cc3)ccc2o1` [compound 202, 2-[5-(4-fluoro-phenyl)-benzofuran-2-ylmethoxycarbonylamino]-naphthalene-1-carboxylic acid], 204.5 to 205 °C; that for `O=C(Nc1ccc(-c2ccccc2)cc1-c1nnn[nH]1)OCc1cc2cc(-c3ccccc3)ccc2o1` [compound 501], 180 to 183 °C. Regarding `O=C(Nc1ccc(-c2ccccc2)cc1C(=O)O)OCc1cc2cc(-c3ccc(F)cc3)ccc2o1` [compound 15, 4-[5-(4-fluoro-phenyl)-benzofuran-2-ylmethoxycarbonylamino]-biphenyl-3-carboxylic acid], the melting point is 231.3 to 231.6 °C. In turn, `Cc1cc(Br)ccc1NC(=O)OCc1cc2cc(-c3cccnc3)ccc2o1` [compound 41, (4-bromo-2-methyl-phenyl)-carbamic acid 5-pyridin-3-yl-benzofuran-2-ylmethyl ester] returned a melting point of 213.9 to 214.5 °C.

For the molecule `O=C(Nc1ccc(F)cc1C(=O)O)OCc1cc2cc(-c3ccc(F)cc3)ccc2o1` [compound 23, 5-fluoro-2-[5-(4-fluoro-phenyl)-benzofuran-2-ylmethoxycarbonylamino]-benzoic acid], the melting point lay in the range of 210 to 211.9 °C. The result for `O=C(Nc1cccc(Cl)c1C(=O)O)OCc1cc2cc(-c3cnccn3)ccc2o1` [compound 39, 2-chloro-6-(5-pyrazin-2-yl-benzofuran-2-ylmethoxycarbonylamino)-benzoic acid] reads 212 to 214.1 °C; that for `O=C(Nc1c(Cl)cc(Cl)cc1C(=O)O)OCc1cc2cc(-c3ccc(F)cc3)ccc2o1` [compound 22, 3,5-dichloro-2-[5-(4-fluoro-phenyl)-benzofuran-2-ylmethoxycarbonylamino]-benzoic acid], 177.7 to 178.5 °C. For `O=C(Nc1cccc(Cl)c1C(=O)O)OCc1cc2cc(-c3ccnnc3)ccc2o1` [compound 40, 2-chloro-6-(5-pyridazin-4-yl-benzofuran-2-ylmethoxycarbonylamino)-benzoic acid] the value was 179 to 182.2 °C; for `Cc1ccc(NC(=O)OCc2cc3cc(-c4cccnc4)ccc3o2)c(C(=O)O)c1` [compound 35, 5-methyl-2-(5-pyridin-3-yl-benzofuran-2-ylmethoxycarbonylamino)-benzoic acid], 200.1 to 200.4 °C. The result for `O=C(Nc1ccc(Br)cc1C(=O)O)OCc1cc2cc(-c3ccc(F)cc3)ccc2o1` [compound 26, 5-bromo-2-[5-(4-fluoro-phenyl)-benzofuran-2-ylmethoxycarbonylamino]-benzoic acid] reads 220.3 to 220.6 °C; that for `Cc1ccc(NC(=O)OCCOc2ccc(-c3ccccc3)cc2)c(C(=O)O)c1` [compound 802, 2-[2-(biphenyl-4-yloxy)-ethoxycarbonylamino]-5-methyl-benzoic acid], 175.5 to 177.8 °C; that for `Nc1cccc(NC(=O)OCc2cc3cc(-c4ccc(F)cc4)ccc3o2)c1C(=O)O` [compound 701, 2-amino-6-[5-(4-fluorophenyl)benzofuran-2-ylmethoxycarbonylamino]benzoic acid], 176.4 to 178.5 °C. `O=C(Nc1cccc(Cl)c1C(=O)O)OCCOc1ccc(-c2ccccc2)cc1` [compound 801, 2-[2-(biphenyl-4-yloxy)-ethoxycarbonylamino]-6-chloro-benzoic acid] came in with a melting point of 157.5 to 158.9 °C.

Molecule `O=C(Nc1ccc(Br)cc1-c1nnn[nH]1)OCc1cc2cc(-c3ccc(F)cc3)ccc2o1` [compound 504, [4-bromo-2-(1H-tetrazol-5-yl)-phenyl]-carbamic acid 5-(4-fluoro-phenyl)-benzofuran-2-ylmethyl ester] had a melting point of 121 to 138 °C. The result for `Cc1ccc(NC(=O)OCc2cc3cc(-c4ccc(F)cc4)ccc3o2)c(C(=O)O)c1` [compound 28, 2-[5-(4-fluoro-phenyl)-benzofuran-2-ylmethoxycarbonylamino]-5-methyl-benzoic acid] reads 190.8 to 191.9 °C. As for `O=C(O)Cc1ccccc1NC(=O)OCc1cc2cc(-c3ccccc3)ccc2o1` [compound 42, [2-(5-phenyl-benzofuran-2-ylmethoxycarbonylamino)-phenyl]-acetic acid], the melting point lay in the range of 169.5 to 170.9 °C. In the case of `O=C(Nc1ccc(Br)cc1-c1nnn[nH]1)OCc1cc2cc(-c3ccccc3)ccc2o1` [compound 507, [4-bromo-2-(1H-tetrazol-5-yl)-phenyl]-carbamic acid 5-phenyl-benzofuran-2-ylmethyl ester], the melting point was in the range of 166 to 190 °C.
